Results from patent publication US6310043A (priority 1999, dated 2001).
Where two headings read alike, the source gives them in different places.

What was measured:
SLT-1 (Verotoxin I) = SLT-1 (Verotoxin I) (Bacteriophage H30, UniProt P69178); test: biochemical; assay type: binding, E. coli
[1] = system: Vero cells exposed to SLT; assay type: cell-based, African Green Monkey
SLT-1 (VT-1) = SLT-1 (VT-1) (Bacteriophage H30, UniProt P69178); assay type: binding, E. coli
SLT-2 (VT-2) = SLT-2 (VT-2) (Escherichia phage 933W, UniProt P09386); assay type: binding, E. coli
SLT-1 = SLT-1 (Bacteriophage H30, UniProt P69178); test: biochemical; assay type: binding, E. coli
Sequence of SLT-1 (P69178 21-89 limits assumed): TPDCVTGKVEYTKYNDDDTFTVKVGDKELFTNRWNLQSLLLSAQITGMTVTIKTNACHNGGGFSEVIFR

Sequence of SLT-1 (Verotoxin I) (P69178 whole entry, looked up): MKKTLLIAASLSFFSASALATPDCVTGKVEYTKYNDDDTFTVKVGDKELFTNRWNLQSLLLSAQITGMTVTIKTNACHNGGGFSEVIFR
Sequence of SLT-1 (VT-1) (P69178 whole entry, looked up): as above
Sequence of SLT-2 (VT-2) (P09386 whole entry, looked up): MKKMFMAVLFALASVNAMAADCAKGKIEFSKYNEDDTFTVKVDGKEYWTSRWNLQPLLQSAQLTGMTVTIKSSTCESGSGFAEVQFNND

| SMILES | IC50 (SLT-1 (Verotoxin I)) [µM] | activity relative to the Pk trisaccharide alone (SLT-1 (Verotoxin I); ELISA, VT-I) [times] | inhibition of cell lysis caused by the SLT [1] | IC50 (SLT-1 (Verotoxin I); read-out: IC50) [µM] | IC50 (SLT-1 (VT-1)) [µM] | IC50 (SLT-2 (VT-2)) [µM] | IC50 (SLT-1 (Verotoxin I); IC50) [µM] | Kd (SLT-1) [µM] |
| --- | --- | --- | --- | --- | --- | --- | --- | --- |
| CO[C@@H]1O[C@H](CO)[C@@H](O[C@@H]2O[C@H](CO)[C@H](O[C@H]3O[C@H](CO)[C@H](O)[C@H](O)[C@H]3O)[C@H](O)[C@H]2OCCOC(=O)NCC(O)CNC(=O)OCCO[C@H]2[C@H](O[C@H]3[C@H](O)[C@@H](O)[C@H](OC)O[C@@H]3CO)O[C@H](CO)[C@H](O[C@H]3O[C@H](CO)[C@H](O)[C@H](O)[C@H]3O)[C@@H]2O)[C@H](O)[C@H]1O [Bridged P^k -trisaccharide methyl glycoside dimer] | 55 | 38 | more effective than a Pk-BSA conjugate at inhibiting cell lysis |  |  |  |  |  |
| CO[C@@H]1O[C@H](CO)[C@@H](O[C@@H]2O[C@H](CO)[C@H](O[C@H]3O[C@H](CO)[C@H](O)[C@H](O)[C@H]3O)[C@H](O)[C@H]2OCCOC(=O)NCC(CNC(=O)OCCO[C@H]2[C@H](O[C@H]3[C@H](O)[C@@H](O)[C@H](OC)O[C@@H]3CO)O[C@H](CO)[C@H](O[C@H]3O[C@H](CO)[C@H](O)[C@H](O)[C@H]3O)[C@@H]2O)OC(=O)NCCCCCCCCNc2c(NCCNC(=O)CSCCCO[C@@H]3[C@@H](OCCCSCC(=O)NCCNc4c(NCCCCCCCCNC(=O)OC(CNC(=O)OCCO[C@H]5[C@H](O[C@H]6[C@H](O)[C@@H](O)[C@H](OC)O[C@@H]6CO)O[C@H](CO)[C@H](O[C@H]6O[C@H](CO)[C@H](O)[C@H](O)[C@H]6O)[C@@H]5O)CNC(=O)OCCO[C@H]5[C@H](O[C@H]6[C@H](O)[C@@H](O)[C@H](OC)O[C@@H]6CO)O[C@H](CO)[C@H](O[C@H]6O[C@H](CO)[C@H](O)[C@H](O)[C@H]6O)[C@@H]5O)c(=O)c4=O)[C@H](OC)O[C@H](CO)[C@H]3OCCCSCC(=O)NCCNc3c(NCCCCCCCCNC(=O)OC(CNC(=O)OCCO[C@H]4[C@H](O[C@H]5[C@H](O)[C@@H](O)[C@H](OC)O[C@@H]5CO)O[C@H](CO)[C@H](O[C@H]5O[C@H](CO)[C@H](O)[C@H](O)[C@H]5O)[C@@H]4O)CNC(=O)OCCO[C@H]4[C@H](O[C@H]5[C@H](O)[C@@H](O)[C@H](OC)O[C@@H]5CO)O[C@H](CO)[C@H](O[C@H]5O[C@H](CO)[C@H](O)[C@H](O)[C@H]5O)[C@@H]4O)c(=O)c3=O)c(=O)c2=O)[C@H](O)[C@H]1O [Compound 24] |  |  |  | 0.048 | 0.47 | 0.029 |  |  |
| CO[C@@H]1O[C@H](CO)[C@@H](O[C@@H]2O[C@H](CO)[C@H](O[C@H]3O[C@H](CO)[C@H](O)[C@H](O)[C@H]3O)[C@H](O)[C@H]2O)[C@H](O)[C@H]1O [P^k -trisaccharide methyl glycoside, reference compound] |  |  |  | 2000 |  |  | 2100 | ~1000 |
